Results: US12018059B2, “Human amylin analog polypeptides and methods of use” (Intarcia Therapeutics, Inc., priority 2018, dated 2024)
Starred links: 1 amine or outer side, 2 acyl side, 3 side chain; linkers in the order of their positions; H or OH if unused. Positions of bridges follow the written chain, without caps; N, C: chain ends. Non-standard residues stand in square brackets, D forms with d. Residues, ends and D or L forms follow the SMILES beside them. Groups on a side chain read outwards from the residue. *: point of attachment. X3 = O=C(O)CCCCCCCCCCCCCCCCCCC(=O)N[C@@H](CCC(=O)NCOCCOCC(=O)NCOCCOCC(=O)*)C(=O)O; X1 = O=C(O)CCCCCCCCCCCCCCCCCCC(=O)NCOCCOCC(=O)*; C20 diacid = O=C(O)CCCCCCCCCCCCCCCCCCC(=O)*; C18 diacid = O=C(O)CCCCCCCCCCCCCCCCC(=O)*; C16 diacid = O=C(O)CCCCCCCCCCCCCCC(=O)*; γGlu = O=C(O)[C@H](CCC(=O)[*:2])N[*:1]; Palmitoyl = CCCCCCCCCCCCCCCC(=O)*

experiment: in vivo; set-up: species or system Sprague-Dawley rats; details: rat, iv, 0.033 mg/kg
Summary of the method: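 Peptide plasma levels measured by UPLC-MS/MS (C18, product-ion monitoring) after protein precipitation or WCX SPE, calibrated in K2EDTA/protease-inhibitor rat plasma. Dosing in non-fasted male Sprague-Dawley rats (n=3): 0.033 mg/kg over 1 h by IV or SC infusion, or 0.3 mg/kg SC bolus; sampling up to 48 h.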

Structure (SMILES) | Vd [L/kg] | clearance [mL/min/kg] | half-life [h]
CC[C@H](C)[C@H](NC(=O)[C@@H]1CCCN1C(=O)CNC(=O)[C@H](Cc1ccccc1)NC(=O)[C@H](CC(N)=O)NC(=O)[C@H](CC(N)=O)NC(=O)[C@H](CO)NC(=O)[C@H](CO)NC(=O)[C@H](CCCCN)NC(=O)[C@H](Cc1c[nH]cn1)NC(=O)[C@H](CCCCNC(=O)CCCCCCCCCCCCCCC(=O)O)NC(=O)[C@H](CCC(=O)O)NC(=O)[C@H](CC(N)=O)NC(=O)[C@H](C)NC(=O)[C@H](CC(C)C)NC(=O)[C@H](CCCNC(=N)N)NC(=O)[C@H](CCC(N)=O)NC(=O)[C@@H](NC(=O)[C@H](C)NC(=O)[C@@H]1CSSC[C@H](NC(=O)[C@@H](N)CO)C(=O)N[C@@H](CC(N)=O)C(=O)N[C@@H]([C@@H](C)O)C(=O)N[C@@H](CO)C(=O)N[C@@H]([C@@H](C)O)C(=O)N1)[C@@H](C)O)C(=O)N[C@@H](CC(C)C)C(=O)N1CCC[C@H]1C(=O)N1CCC[C@H]1C(=O)N[C@H](C(=O)N[C@@H](CCCCN)C(=O)N[C@H](C(=O)NCC(=O)N[C@@H](CO)C(=O)N[C@@H](CCC(=O)O)C(=O)N[C@H](C(=O)N[C@@H](Cc1ccc(O)cc1)C(N)=O)[C@@H](C)O)C(C)C)[C@@H](C)O [Compound A86] (H-SCNTSTCATQRLANEK(C16 diacid)HKSSNNFGPILPPTKVGSETY-NH2; disulfide 2-7) | 0.0936 | 0.297 | 4.65
CC[C@H](C)[C@H](NC(=O)[C@@H]1CCCN1C(=O)CNC(=O)[C@H](Cc1ccccc1)NC(=O)[C@H](CC(N)=O)NC(=O)[C@H](CC(N)=O)NC(=O)[C@H](CO)NC(=O)[C@H](CO)NC(=O)[C@H](CCCCN)NC(=O)[C@H](Cc1c[nH]cn1)NC(=O)[C@H](CC(C)C)NC(=O)[C@H](CCCCNC(=O)CC[C@H](NC(=O)CC[C@H](NC(=O)CCCCCCCCCCCCCCCCC(=O)O)C(=O)O)C(=O)O)NC(=O)[C@H](CC(N)=O)NC(=O)[C@H](C)NC(=O)[C@H](CC(C)C)NC(=O)[C@H](CCCNC(=N)N)NC(=O)[C@H](CCC(N)=O)NC(=O)[C@@H](NC(=O)[C@H](C)NC(=O)[C@@H]1CSSC[C@H](NC(=O)[C@@H](N)CO)C(=O)N[C@@H](CC(N)=O)C(=O)N[C@@H]([C@@H](C)O)C(=O)N[C@@H](CO)C(=O)N[C@@H]([C@@H](C)O)C(=O)N1)[C@@H](C)O)C(=O)N[C@@H](CC(C)C)C(=O)N1CCC[C@H]1C(=O)N1CCC[C@H]1C(=O)N[C@H](C(=O)N[C@@H](CCCCN)C(=O)N[C@H](C(=O)NCC(=O)N[C@@H](CO)C(=O)N[C@@H](CCC(=O)O)C(=O)N[C@H](C(=O)N[C@@H](Cc1ccc(O)cc1)C(N)=O)[C@@H](C)O)C(C)C)[C@@H](C)O [Compound A87] (H-SCNTSTCATQRLANK([γGlu-γGlu-C18 diacid])LHKSSNNFGPILPPTKVGSETY-NH2; disulfide 2-7) | 0.143 | 0.108 | 17.7
CCCCCCCCCCCCCCCC(=O)N[C@@H](CCC(=O)N[C@@H](CCC(=O)N[C@@H](CCC(=O)N[C@@H](CCC(=O)N[C@@H](CCC(=O)NCCCC[C@@H](NC(=O)[C@H](CCC(=O)O)NC(=O)[C@H](CC(N)=O)NC(=O)[C@H](C)NC(=O)[C@H](CC(C)C)NC(=O)[C@H](CCCNC(=N)N)NC(=O)[C@H](CCC(N)=O)NC(=O)[C@@H](NC(=O)[C@H](C)NC(=O)[C@@H]1CSSC[C@H](NC(=O)[C@@H](N)CO)C(=O)N[C@@H](CC(N)=O)C(=O)N[C@@H]([C@@H](C)O)C(=O)N[C@@H](CO)C(=O)N[C@@H]([C@@H](C)O)C(=O)N1)[C@@H](C)O)C(=O)N[C@@H](Cc1c[nH]cn1)C(=O)N[C@@H](CCCCN)C(=O)N[C@@H](CO)C(=O)N[C@@H](CO)C(=O)N[C@@H](CC(N)=O)C(=O)N[C@@H](CC(N)=O)C(=O)N[C@@H](Cc1ccccc1)C(=O)NCC(=O)N1CCC[C@H]1C(=O)N[C@H](C(=O)N[C@@H](CC(C)C)C(=O)N1CCC[C@H]1C(=O)N1CCC[C@H]1C(=O)N[C@H](C(=O)N[C@@H](CCCCN)C(=O)N[C@H](C(=O)NCC(=O)N[C@@H](CO)C(=O)N[C@@H](CCC(=O)O)C(=O)N[C@H](C(=O)N[C@@H](Cc1ccc(O)cc1)C(N)=O)[C@@H](C)O)C(C)C)[C@@H](C)O)[C@@H](C)CC)C(=O)O)C(=O)O)C(=O)O)C(=O)O)C(=O)O [Compound A91] (H-SCNTSTCATQRLANE[dK]([γGlu-γGlu-γGlu-γGlu-γGlu-Palmitoyl])HKSSNNFGPILPPTKVGSETY-NH2; disulfide 2-7) | 0.194 | 0.194 | 13.2
CC[C@H](C)[C@H](NC(=O)[C@@H]1CCCN1C(=O)CNC(=O)[C@H](Cc1ccccc1)NC(=O)[C@H](CC(N)=O)NC(=O)[C@H](CC(N)=O)NC(=O)[C@H](CO)NC(=O)[C@H](CO)NC(=O)[C@H](CCCCN)NC(=O)[C@H](Cc1c[nH]cn1)NC(=O)[C@H](CCCCNC(=O)CCCCCCCCCCCCCCCCC(=O)O)NC(=O)[C@H](CCC(=O)O)NC(=O)[C@H](CC(N)=O)NC(=O)[C@H](C)NC(=O)[C@H](CC(C)C)NC(=O)[C@H](CCCNC(=N)N)NC(=O)[C@H](CCC(N)=O)NC(=O)[C@@H](NC(=O)[C@H](C)NC(=O)[C@@H]1CSSC[C@H](NC(=O)[C@@H](N)CO)C(=O)N[C@@H](CC(N)=O)C(=O)N[C@@H]([C@@H](C)O)C(=O)N[C@@H](CO)C(=O)N[C@@H]([C@@H](C)O)C(=O)N1)[C@@H](C)O)C(=O)N[C@@H](CC(C)C)C(=O)N1CCC[C@H]1C(=O)N1CCC[C@H]1C(=O)N[C@H](C(=O)N[C@@H](CCCCN)C(=O)N[C@H](C(=O)NCC(=O)N[C@@H](CO)C(=O)N[C@@H](CCC(=O)O)C(=O)N[C@H](C(=O)N[C@@H](Cc1ccc(O)cc1)C(N)=O)[C@@H](C)O)C(C)C)[C@@H](C)O [Compound A93] (H-SCNTSTCATQRLANEK(C18 diacid)HKSSNNFGPILPPTKVGSETY-NH2; disulfide 2-7) | 0.129 | 0.109 | 16.7
CC[C@H](C)[C@H](NC(=O)[C@@H]1CCCN1C(=O)CNC(=O)[C@H](Cc1ccccc1)NC(=O)[C@H](CC(N)=O)NC(=O)[C@H](CC(N)=O)NC(=O)[C@H](CO)NC(=O)[C@H](CO)NC(=O)[C@H](CCCCN)NC(=O)[C@H](Cc1c[nH]cn1)NC(=O)[C@H](CC(C)C)NC(=O)[C@H](CCCCNC(=O)CC[C@H](NC(=O)CC[C@H](NC(=O)COCCOCNC(=O)COCCOCNC(=O)CC[C@H](NC(=O)CCCCCCCCCCCCCCCCCCC(=O)O)C(=O)O)C(=O)O)C(=O)O)NC(=O)[C@H](CC(N)=O)NC(=O)[C@H](C)NC(=O)[C@H](CC(C)C)NC(=O)[C@H](CCCNC(=N)N)NC(=O)[C@H](CCC(N)=O)NC(=O)[C@@H](NC(=O)[C@H](C)NC(=O)[C@@H]1CSSC[C@H](NC(=O)[C@@H](N)CO)C(=O)N[C@@H](CC(N)=O)C(=O)N[C@@H]([C@@H](C)O)C(=O)N[C@@H](CO)C(=O)N[C@@H]([C@@H](C)O)C(=O)N1)[C@@H](C)O)C(=O)N[C@@H](CC(C)C)C(=O)N1CCC[C@H]1C(=O)N1CCC[C@H]1C(=O)N[C@H](C(=O)N[C@@H](CCCCN)C(=O)N[C@H](C(=O)NCC(=O)N[C@@H](CO)C(=O)N[C@@H](CCC(=O)O)C(=O)N[C@H](C(=O)N[C@@H](Cc1ccc(O)cc1)C(N)=O)[C@@H](C)O)C(C)C)[C@@H](C)O [Compound A94] (H-SCNTSTCATQRLANK([γGlu-γGlu-X3])LHKSSNNFGPILPPTKVGSETY-NH2; disulfide 2-7; N-terminus assumed) | 0.084 | 0.0365 | 29.3
CC[C@H](C)[C@H](NC(=O)[C@@H]1CCCN1C(=O)CNC(=O)[C@H](Cc1ccccc1)NC(=O)[C@H](CC(N)=O)NC(=O)[C@H](CC(N)=O)NC(=O)[C@H](CO)NC(=O)[C@H](CO)NC(=O)[C@H](CCCCN)NC(=O)[C@H](Cc1c[nH]cn1)NC(=O)[C@H](CC(C)C)NC(=O)[C@@H](CCCCNC(=O)CC[C@H](NC(=O)CC[C@H](NC(=O)COCCOCNC(=O)CCCCCCCCCCCCCCCCCCC(=O)O)C(=O)O)C(=O)O)NC(=O)[C@H](CC(N)=O)NC(=O)[C@H](C)NC(=O)[C@H](CC(C)C)NC(=O)[C@H](CCCNC(=N)N)NC(=O)[C@H](CCC(N)=O)NC(=O)[C@@H](NC(=O)[C@H](C)NC(=O)[C@@H]1CSSC[C@H](NC(=O)[C@@H](N)CO)C(=O)N[C@@H](CC(N)=O)C(=O)N[C@@H]([C@@H](C)O)C(=O)N[C@@H](CO)C(=O)N[C@@H]([C@@H](C)O)C(=O)N1)[C@@H](C)O)C(=O)N[C@@H](CC(C)C)C(=O)N1CCC[C@H]1C(=O)N1CCC[C@H]1C(=O)N[C@H](C(=O)N[C@@H](CCCCN)C(=O)N[C@H](C(=O)NCC(=O)N[C@@H](CO)C(=O)N[C@@H](CCC(=O)O)C(=O)N[C@H](C(=O)N[C@@H](Cc1ccc(O)cc1)C(N)=O)[C@@H](C)O)C(C)C)[C@@H](C)O [Compound A96] (H-SCNTSTCATQRLAN[dK]([γGlu-γGlu-X1])LHKSSNNFGPILPPTKVGSETY-NH2; disulfide 2-7; N-terminus assumed) | 0.153 | 0.0996 | 20.1
CC[C@H](C)[C@H](NC(=O)[C@@H]1CCCN1C(=O)CNC(=O)[C@H](Cc1ccccc1)NC(=O)[C@H](CC(N)=O)NC(=O)[C@H](CC(N)=O)NC(=O)[C@H](CO)NC(=O)[C@H](CO)NC(=O)[C@H](CCCCN)NC(=O)[C@H](Cc1c[nH]cn1)NC(=O)[C@H](CC(C)C)NC(=O)[C@@H](CCCCNC(=O)CC[C@H](NC(=O)CC[C@H](NC(=O)CCCCCCCCCCCCCCCCCCC(=O)O)C(=O)O)C(=O)O)NC(=O)[C@H](CC(N)=O)NC(=O)[C@H](C)NC(=O)[C@H](CC(C)C)NC(=O)[C@H](CCCNC(=N)N)NC(=O)[C@H](CCC(N)=O)NC(=O)[C@@H](NC(=O)[C@H](C)NC(=O)[C@@H]1CSSC[C@H](NC(=O)[C@@H](N)CO)C(=O)N[C@@H](CC(N)=O)C(=O)N[C@@H]([C@@H](C)O)C(=O)N[C@@H](CO)C(=O)N[C@@H]([C@@H](C)O)C(=O)N1)[C@@H](C)O)C(=O)N[C@@H](CC(C)C)C(=O)N1CCC[C@H]1C(=O)N1CCC[C@H]1C(=O)N[C@H](C(=O)N[C@@H](CCCCN)C(=O)N[C@H](C(=O)NCC(=O)N[C@@H](CO)C(=O)N[C@@H](CCC(=O)O)C(=O)N[C@H](C(=O)N[C@@H](Cc1ccc(O)cc1)C(N)=O)[C@@H](C)O)C(C)C)[C@@H](C)O [Compound A97] (H-SCNTSTCATQRLAN[dK]([γGlu-γGlu-C20 diacid])LHKSSNNFGPILPPTKVGSETY-NH2; disulfide 2-7) | 0.0995 | 0.0604 | 21
